“Also recorded” adds a separate entry of the source.
Tests used:
[1] = test system: mouse skin with hair follicles arrested in telogen; assay: Topical administration of novel compounds to pre-sensitized mice (Example 2); assay type: in vivo, C57BL/6 mice; settings: pre-sensitized with 2% on chest; 2% topical on days 3, 5 and 7; images day 17
Text: In order to compare the effect of SABDE, CF3-SABDE or CC1-SABDE (see FIG. 2a) on hair growth, 3 female C57BL/6 mice, 8 weeks old, were pre-sensitized with 2% of each compound on the chest 4 days before the first treatment and both flanks were shaved (Day 0). On days 3, 5, and 7, 2% of SABDE, CF3-SABDE or CC1-SABDE was topically administered to the shaved left flank of one mouse each using a cotton-tipped applicator. Images were taken on day 17 in order to visualize hair growth and inflammation (see FIGS. 2B and 2C).

[2] = test system: resting telogen hair follicles; assay: Induction of anagen phase by CF3-SADBE, H&E staining of treated skin (Example 4); assay type: in vivo, mouse; settings: 100 uL of 100 mM on left flank; right flank untreated
Text: (§1) To measure the effect of SABDE and DPCP (see FIG. 1a) on hair growth, 6 female C57BL/6 mice, 8 weeks old, were shaved on both flanks 4 days before topical administration of the compounds (Day −4). During this period, the mice were visually monitored to confirm absence of hair growth and to confirm the entire shaved area is arrested in the telogen phase as expected from 8 weeks old mice. On the day of administration (day 0), 2% SABDE or 2% DCPC was topically administered to the shaved left flank of 3 mice each using a cotton-tipped applicator (see FIG. 1B). Images were taken on day 9 and day 16 in order to visualize hair growth and inflammation (see FIG. 1c). Skin pigmentation intensity was quantified by ImageJ. The anagen induction index is calculated as the change in skin pigmentation intensity (a marker of anagen) on the treated side relative to (i.e., as a percent of) the untreated side (see FIG. 1d).
The effects of a topical treatment dose of CF3-SADBE was measured and visualized using the methods described in Example 1. The gross appearance of the mouse treated with CF3-SADBE was imaged (see FIG. 4a). CF3-SADBE was administered on the left flank at a dose of 100 uL of 100 mM CF3-SADBE (see FIG. 4B). The right flank was left untreated (see FIG. 4C).

[3] = test system: mouse skin with hair follicles arrested in telogen; assay: Comparison of 100 mM SADBE and CF3-SADBE topical treatment (Examples 3 and 5); assay type: in vivo, C57BL/6 mice; settings: 100 mM topical; for visible anagen: by day 10; for anagen induction / visible inflammation: by day 14; for hair growth on the treated flank: by day 17
Text: as §1
(§2) The anagen induction index can be determined by any methods known in the art, including, for example, histological methods (e.g., H&E, other stains, or without stains) and/or other visual morphology methods. (e.g., methods to measure the biological parameters of hair growth. This value is then normalized to the specific experiment (individual mice) and shown as relative anagen induction by skin pigmentation intensity (a marker of anagen) on the treated side as a percent of the baseline untreated side. Analysis of the anagen (or other phases) can be performed by any method known in the art, including, e.g., a tissue biopsy and/or morphological analysis.
(§3) Inflammation can be measured by known methods such as histological grading, visual identification, and quantification of lesions. The number, size, and extent of the cutaneous lesions present (e.g., see blue * in FIG. 3a) can be visualized and quantified using any known method in the art, including, for example, histological methods (e.g., H&E, other stains, or without stains) and/or other visual morphology methods.
The effects of a topical treatment dose of SADBE or CF3-SADBE were measured using the methods describe in Example 1. In FIG. 3, the topical treatment dose used was 50 uL of 100 mM SADBE or CF3-SADBE.
The effects on anagen induction and inflammation of topical treatment with CF3-SADBE at 100 mM were measured and visualized using the methods described in Example 1.

[4] = test system: hair growth in shaved mice; assay: Hair growth in animal models after topical delivery of hapten derivatives (general statements); assay type: in vivo
[5] = test system: mouse skin with hair follicles arrested in telogen; assay: Topical administration of SADBE and DPCP to shaved flank of mice (Example 1); assay type: in vivo, C57BL/6 mice; settings: for induction of anagen and hair growth: 2% topical, single administration day 0 to shaved left flank, images day 9 and day 16; for hair growth in a mammal without an autoimmune disease: mouse, in vivo
Text: as §1, §2, §3

Compound	anagen and hair growth [1]	inflammation [1]	hair follicle phase in treated skin (H&E staining) [2]	visible anagen [3]	anagen induction [3]	visible inflammation [3]	hair growth on the treated flank [3]	efficacy as measured by time of anagen induction [4]	inflammation relative to known treatments [4]	hair growth promoting activity ([4]; animal models, after prior shaving)	induction of anagen and hair growth [5]	hair growth in a mammal without an autoimmune disease [5]
O=c1c(OCCCCCl)c(OCCCCCl)c1=O [CC1-SABDE]	neither produced inflammation nor anagen and hair growth	neither produced inflammation nor anagen and hair growth	–	–	–	–	–	–	–	–	–	–
O=c1c(OCCCC(F)(F)F)c(OCCCC(F)(F)F)c1=O [CF3-SADBE, squaric acid di(trifluromethyl)propyl ester]	induce anagen and hair growth at least as efficiently as SADBE	less inflammation	hair follicles in anagen	induced visible anagen	induces anagen	much less visible inflammation	Robust hair growth	earlier induction of anagen	less inflammation than known treatments; also recorded: somewhat diminished inflammation	accelerated hair growth relative to known treatments	–	–
O=c1c(-c2ccccc2)c1-c1ccccc1 [DPCP, diphenylcyclopropenone]	–	–	–	–	–	–	–	–	–	–	induction of anagen and hair growth	increased hair growth
CCCCOc1c(OCCCC)c(=O)c1=O [SADBE]	–	inflammation in the SADBE treated flank	–	does not; also recorded: did not induce visible anagen	induces anagen	substantial inflammation; also recorded: more visible inflammation	Robust hair growth	–	–	–	induction of anagen and hair growth	increased (e.g., promoted) hair growth

— patent publication US20230293451A1, “STIMULATION OF HAIR GROWTH” (The General Hospital Corporation, priority 2020, published 2023)
